Test results published in patent US11865101B2, “Cromolyn metal complexes as enhanced pharmaceutical formulations and method of preparing the same” (University of Puerto Rico, priority 2020, dated 2024).

Tests used:
[1] = noted by others; above it CS forms supramolecular aggregates; cited from earlier work
[2] = Dissolution / stability in FaSSGF (pH 1.60) at 37° C.; assay type: physicochemical; details: FaSSGF pH=1.60, 37° C.
Protocol: Dissolution profiles—Dissolution profiles were recorded for CS, Cromolyn-Zn, Cromolyn-Mg, and Cromolyn-Ca and quantified by measuring absorbance at 237 nm against a reagent blank containing the buffered media. Dissolution tests were performed in a PBS buffer (pH=7.40) and FaSSGF (pH=1.60) at 37° C. under constant stirring (150 rpm). Absorbance measurements were performed on an Agilent Technologies Cary Series UV-Vis Spectrophotometer, Cary 100 UV-Vis model; using the UV Cary Scan software version v.20.0.470.
The stability of these materials in biologically relevant media was used to understand the ability of the pMCs to sustain blood plasma concentration for CS. A higher blood concentration might allow for longer circulation times and adequate delivery to the target tissues and organs. This is currently a pharmacological disadvantage for oral formulations of CS (<1% bioavailability and low solubility ˜100.0 mg/mL at 20° C.). […] Therefore, no further dissolution studies were carried out in this media.

[3] = at 20° C.; cited from earlier work
[4] = orally administered, absorption from the gastrointestinal tract; cited from earlier work
[5] = Dissolution profile in PBS (pH 7.40) at 37° C., UV absorbance at 237 nm; assay type: physicochemical; details: PBS pH=7.40, 37° C., 150 rpm, after 1 hr
Protocol: Dissolution profiles—Dissolution profiles were recorded for CS, Cromolyn-Zn, Cromolyn-Mg, and Cromolyn-Ca and quantified by measuring absorbance at 237 nm against a reagent blank containing the buffered media. Dissolution tests were performed in a PBS buffer (pH=7.40) and FaSSGF (pH=1.60) at 37° C. under constant stirring (150 rpm). Absorbance measurements were performed on an Agilent Technologies Cary Series UV-Vis Spectrophotometer, Cary 100 UV-Vis model; using the UV Cary Scan software version v.20.0.470. Stock Solution: A standard stock solution of CS was prepared by dissolving 10 mg in a 100 mL (0.1 mg/mL) volumetric flask and completing to volume with PBS. Dilute solutions were obtained by appropriate dilution of this stock solution. […] PBS was used as the solvent. The absorbance of CS was measured at maximum absorption wavelength (λmax) of 237 nm against a solvent blank (PBS). […] Dissolution profiles were recorded for CS, Cromolyn-Zn, Cromolyn-Mg, and Cromolyn-Ca. […] The absorbance of CS was measured at 237 nm against the solvent blank. […] Absorbance measurements were performed on an Agilent Technologies Cary Series UV-Vis Spectrophotometer, Cary 100 UV-Vis; using the UV Cary Scan software version v.20.0.470. […] The absorbance was measured at the maximum wavelength (λmax=237 nm) for CS as the degradation of the pMCs progressed in PBS over time. […]

dissolution / degradation in FaSSGF [2]: no detectable dissolution
maximum concentration of CS dissolved [5]: ~98%
Structure (SMILES): O=C(O)c1cc(=O)c2c(OCC(O)COc3cccc4oc(C(=O)O)cc(=O)c34)cccc2o1 [CS, cromolyn sodium]
critical self-association concentration [1]: 10.00 mg/mL
solubility [3]: ~100.0 mg/mL
bioavailability [4]: < 1%
